Experimental data from the supplement of paper PMC10883282.

Key:
Assay in all cases: relative viability vs DMSO control (72 h) (fraction); higher = more viable cells
MES-SA = test system: MES-SA
Outline: (§1)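 Serially diluted compound, 2.5 µl from source plates spanning 10 mM to 0.0002 mM, was added 24 h after sarcoma cell lines were seeded in 384-well plates at densities targeting 80–90% confluence. Plates then sat 72 h at 37 °C, 5% CO2, with 0.1% DMSO vehicle and a 5 µM positive control. Relative viability came from ATPLite as percent growth, averaged over up to triplicate wells, and was rescaled with 1 as full and 0 as none.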

SK-LMS-1 = test system: SK-LMS-1
Outline: as §1

SK-ES-1 = test system: SK-ES-1
Outline: as §1

SYO-1 = test system: SYO-1
Outline: as §1

SW1353 = test system: SW1353
Outline: as §1

RD-ES = test system: RD-ES
Outline: as §1

VA-ES-BJ = test system: VA-ES-BJ
Outline: as §1

HT1080 = test system: HT1080
Outline: as §1

RD = test system: RD
Outline: as §1

KHOS-240S = test system: KHOS-240S
Outline: as §1

SW982 = test system: SW982
Outline: as §1

G401 = test system: G401
Outline: as §1

COc1cc2nccc(Oc3ccc(NC(=O)NC4CC4)c(Cl)c3)c2cc1C(N)=O [Lenvatinib]
Conditions | relative viability
G401, 0.00017 µM | 0.992
G401, 0.00051 µM | 0.981
G401, 0.00152 µM | 1.01
G401, 0.00457 µM | 0.982
G401, 0.01372 µM | 1.006
G401, 0.04115 µM | 0.974
G401, 0.1235 µM | 0.919
G401, 0.3704 µM | 0.848
G401, 1.111 µM | 0.55
G401, 3.333 µM | 0.434
G401, 10 µM | 0.357
HT1080, 0.00017 µM | 1.07
HT1080, 0.00051 µM | 1.06
HT1080, 0.00152 µM | 1.08
HT1080, 0.00457 µM | 1.05
HT1080, 0.01372 µM | 1.08
HT1080, 0.04115 µM | 1.06
HT1080, 0.1235 µM | 1.06
HT1080, 0.3704 µM | 1.07
HT1080, 1.111 µM | 1.09
HT1080, 3.333 µM | 1.09
HT1080, 10 µM | 1.12
KHOS-240S, 0.00017 µM | 0.992
KHOS-240S, 0.00051 µM | 1
KHOS-240S, 0.00152 µM | 1.03
KHOS-240S, 0.00457 µM | 1.01
KHOS-240S, 0.01372 µM | 0.977
KHOS-240S, 0.04115 µM | 0.938
KHOS-240S, 0.1235 µM | 0.913
KHOS-240S, 0.3704 µM | 0.824
KHOS-240S, 1.111 µM | 0.738
KHOS-240S, 3.333 µM | 0.72
KHOS-240S, 10 µM | 0.6606
MES-SA, 0.00017 µM | 1.01
MES-SA, 0.00051 µM | 0.958
MES-SA, 0.00152 µM | 0.971
MES-SA, 0.00457 µM | 0.9651
MES-SA, 0.01372 µM | 0.942
MES-SA, 0.04115 µM | 0.939
MES-SA, 0.1235 µM | 0.964
MES-SA, 0.3704 µM | 0.936
MES-SA, 1.111 µM | 0.765
MES-SA, 3.333 µM | 0.597
MES-SA, 10 µM | 0.454
RD, 0.00017 µM | 0.985
RD, 0.00051 µM | 0.993
RD, 0.00152 µM | 1.04
RD, 0.00457 µM | 1.04
RD, 0.01372 µM | 1.02
RD, 0.04115 µM | 1.02
RD, 0.1235 µM | 1.04
RD, 0.3704 µM | 1.047
RD, 1.111 µM | 1.04
RD, 3.333 µM | 1.08
RD, 10 µM | 0.984
RD-ES, 0.00017 µM | 0.959
RD-ES, 0.00051 µM | 0.98
RD-ES, 0.00152 µM | 0.959
RD-ES, 0.00457 µM | 0.961
RD-ES, 0.01372 µM | 0.923
RD-ES, 0.04115 µM | 0.942
RD-ES, 0.1235 µM | 0.875
RD-ES, 0.3704 µM | 0.857
RD-ES, 1.111 µM | 0.852
RD-ES, 3.333 µM | 0.835
RD-ES, 10 µM | 0.815
SK-ES-1, 0.00017 µM | 0.985
SK-ES-1, 0.00051 µM | 1.01
SK-ES-1, 0.00152 µM | 0.9845
SK-ES-1, 0.00457 µM | 0.958
SK-ES-1, 0.01372 µM | 0.979
SK-ES-1, 0.04115 µM | 0.938
SK-ES-1, 0.1235 µM | 0.911
SK-ES-1, 0.3704 µM | 0.881
SK-ES-1, 1.111 µM | 0.791
SK-ES-1, 3.333 µM | 0.689
SK-ES-1, 10 µM | 0.593
SK-LMS-1, 0.00017 µM | 1.02
SK-LMS-1, 0.00051 µM | 1.01
SK-LMS-1, 0.00152 µM | 1.04
SK-LMS-1, 0.00457 µM | 1.05
SK-LMS-1, 0.01372 µM | 0.998
SK-LMS-1, 0.04115 µM | 1.04
SK-LMS-1, 0.1235 µM | 0.997
SK-LMS-1, 0.3704 µM | 1.04
SK-LMS-1, 1.111 µM | 0.98
SK-LMS-1, 3.333 µM | 0.953
SK-LMS-1, 10 µM | 0.972
SW982, 0.00017 µM | 1
SW982, 0.00051 µM | 0.993
SW982, 0.00152 µM | 0.998
SW982, 0.00457 µM | 0.9857
SW982, 0.01372 µM | 0.989
SW982, 0.04115 µM | 0.99
SW982, 0.1235 µM | 0.982
SW982, 0.3704 µM | 0.968
SW982, 1.111 µM | 0.947
SW982, 3.333 µM | 0.926
SW982, 10 µM | 0.8573
SW1353, 0.00017 µM | 1.01
SW1353, 0.00051 µM | 0.999
SW1353, 0.00152 µM | 0.986
SW1353, 0.00457 µM | 0.982
SW1353, 0.01372 µM | 0.931
SW1353, 0.04115 µM | 0.943
SW1353, 0.1235 µM | 0.902
SW1353, 0.3704 µM | 0.872
SW1353, 1.111 µM | 0.859
SW1353, 3.333 µM | 0.83
SW1353, 10 µM | 0.817
SYO-1, 0.00017 µM | 1.07
SYO-1, 0.00051 µM | 1.02
SYO-1, 0.00152 µM | 1.02
SYO-1, 0.00457 µM | 0.9627
SYO-1, 0.01372 µM | 0.864
SYO-1, 0.04115 µM | 0.721
SYO-1, 0.1235 µM | 0.606
SYO-1, 0.3704 µM | 0.504
SYO-1, 1.111 µM | 0.472
SYO-1, 3.333 µM | 0.459
SYO-1, 10 µM | 0.432
VA-ES-BJ, 0.00017 µM | 1.07
VA-ES-BJ, 0.00051 µM | 1.06
VA-ES-BJ, 0.00152 µM | 1.08
VA-ES-BJ, 0.00457 µM | 1.1
VA-ES-BJ, 0.01372 µM | 1.12
VA-ES-BJ, 0.04115 µM | 1.11
VA-ES-BJ, 0.1235 µM | 1.13
VA-ES-BJ, 0.3704 µM | 1.13
VA-ES-BJ, 1.111 µM | 1.15
VA-ES-BJ, 3.333 µM | 1.118
VA-ES-BJ, 10 µM | 1.04
